In the NIST ThermoML archive (doi:10.1021/je060238o):

Experiments:
[1] = Liquid; for mass density: 298.15 K, 101.33 kPa; for Normal boiling temperature: Ebulliometric method (Recirculating still)
[2] = refractive index (Na D-line) (dimensionless); details: 298.15 K; 101.33 kPa; Liquid; Standard Abbe refractometry
[3] = xn = mol fraction of the nth substance listed; details: 298.15 K, 101 kPa, Liquid
[4] = refractive index (Na D-line) (dimensionless); xn = mol fraction of the nth substance listed; details: 298.15 K, 101 kPa, Liquid, Standard Abbe refractometry

CCC(C)CO (stereo unspecified) [2-methyl-1-butanol]
Details	Normal boiling temperature [°C]	mass density [kg/m3]	refractive index
[1]	128.78	814.87	–
[2]	–	–	1.40872

CCC(C)CO (stereo unspecified) [2-methyl-1-butanol] + CC(C)CO
Details	mass density, [3] [kg/m3]	refractive index, [4]
x2 = 0.051	814.19	1.40802
x2 = 0.101	813.53	1.40742
x2 = 0.151	812.85	1.40674
x2 = 0.2	812.17	1.40606
x2 = 0.25	811.49	1.40538
x2 = 0.3	810.75	1.40466
x2 = 0.35	810.03	1.40397
x2 = 0.401	809.29	1.40328
x2 = 0.45	808.55	1.40252
x2 = 0.5	807.79	1.40178
x2 = 0.549	807.02	1.40107
x2 = 0.599	806.25	1.40029
x2 = 0.65	805.45	1.39946
x2 = 0.701	804.63	1.39866
x2 = 0.749	803.86	1.3979
x2 = 0.8	803	1.39706
x2 = 0.85	802.17	1.3962
x2 = 0.899	801.17	1.39533
x2 = 0.95	800.1	1.3945

CC(C)CO [2-methyl-1-propanol]
Details	Normal boiling temperature [°C]	mass density [kg/m3]	refractive index
[1]	108	797.84	–
[2]	–	–	1.3937

CC(C)CO [2-methyl-1-propanol] + CCCCCO
Details	mass density, [3] [kg/m3]	refractive index, [4]
x1 = 0.05	810.3	1.4071
x1 = 0.1	809.7	1.4065
x1 = 0.15	809.09	1.40588
x1 = 0.2	808.51	1.40524
x1 = 0.249	807.94	1.4046
x1 = 0.299	807.34	1.40394
x1 = 0.35	806.75	1.40326
x1 = 0.4	806.13	1.40259
x1 = 0.45	805.53	1.40193
x1 = 0.499	804.9	1.40124
x1 = 0.549	804.29	1.40055
x1 = 0.6	803.64	1.39983
x1 = 0.65	803.01	1.3991
x1 = 0.699	802.41	1.39834
x1 = 0.75	801.73	1.39758
x1 = 0.8	801.07	1.39683
x1 = 0.85	800.39	1.39604
x1 = 0.9	799.67	1.39524
x1 = 0.95	798.84	1.39447

CC(C)CCO [3-methylbutan-1-ol]
Details	Normal boiling temperature [°C]	mass density [kg/m3]	refractive index
[1]	131.12	806.78	–
[2]	–	–	1.40515

CC(C)CCO [3-methylbutan-1-ol] + CC(C)CO
Details	mass density, [3] [kg/m3]	refractive index, [4]
x2 = 0.051	805.95	1.40469
x2 = 0.099	805.61	1.40418
x2 = 0.15	805.25	1.40371
x2 = 0.199	804.88	1.40318
x2 = 0.254	804.48	1.4026
x2 = 0.3	804.15	1.40212
x2 = 0.35	803.77	1.40161
x2 = 0.4	803.39	1.40109
x2 = 0.445	803.05	1.4006
x2 = 0.5	802.62	1.39997
x2 = 0.549	802.23	1.3994
x2 = 0.6	801.83	1.39879
x2 = 0.65	801.42	1.39821
x2 = 0.7	800.64	1.39764
x2 = 0.751	800.19	1.39701
x2 = 0.799	799.74	1.39636
x2 = 0.849	799.27	1.39567
x2 = 0.899	798.8	1.395
x2 = 0.95	798.31	1.39435

CCCCCO [pentan-1-ol]
Details	Normal boiling temperature [°C]	mass density [kg/m3]	refractive index
[1]	137.70	810.96	–
[2]	–	–	1.4077
